Measurements: PubChem BioAssay AID330 (DTP/NCI, 2004)
Where “and” joins values, the source holds several entries; their conditions need not be identical. Equal entries are not always repeated. Toxic doses and inconclusive results are not listed. Rule for the calls: active = survival T/C of 150% or more; inactive = T/C below 125% in these data.

System: P388 leukemia ip, CD2F1 mice, survival T/C
Experiment: NCI In Vivo Anticancer Drug Screen. Data for tumor model P388 Leukemia (intraperitoneal) in CD2F1 (CDF1) mice
Conditions: endpoint: median survival time, higher = longer survival
Procedure, shortened: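 Mice carrying the transplanted tumor received test compound or vehicle. Survival was recorded in each group, and the value is the treated-group measurement divided by that of the vehicle-treated control group.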

[1] = dose: 50.0 mg/kg/injection, schedule: Q01DX009 (ip), vehicle: Klucel (hydroxypropylcellulose) (HPC)
[2] = dose: 100.0 mg/kg/injection, schedule: Q01DX009 (ip), vehicle: Klucel (hydroxypropylcellulose) (HPC)
[3] = dose: 200.0 mg/kg/injection, schedule: Q01DX009 (ip), vehicle: Klucel (hydroxypropylcellulose) (HPC)
[4] = dose: 100.0 mg/kg/injection, schedule: Q01DX001 (ip), vehicle: Klucel (hydroxypropylcellulose) (HPC)
[5] = dose: 200.0 mg/kg/injection, schedule: Q01DX001 (ip), vehicle: Klucel (hydroxypropylcellulose) (HPC)
[6] = dose: 50.0 mg/kg/injection, schedule: Q01DX005 (ip), vehicle: saline with Tween-80
[7] = dose: 50.0 mg/kg/injection, schedule: Q01DX005 (ip), vehicle: Klucel (hydroxypropylcellulose) (HPC)
[8] = dose: 100.0 mg/kg/injection, schedule: Q01DX005 (ip), vehicle: Klucel (hydroxypropylcellulose) (HPC)
[9] = dose: 200.0 mg/kg/injection, schedule: Q01DX005 (ip), vehicle: Klucel (hydroxypropylcellulose) (HPC)
[10] = dose: 25.0 mg/kg/injection, schedule: Q01DX005 (ip), vehicle: Klucel (hydroxypropylcellulose) (HPC)
[11] = dose: 25.0 mg/kg/injection, schedule: Q04DX003 (ip), vehicle: Klucel (hydroxypropylcellulose) (HPC)
[12] = dose: 50.0 mg/kg/injection, schedule: Q04DX003 (ip), vehicle: Klucel (hydroxypropylcellulose) (HPC)
[13] = dose: 60.0 mg/kg/injection, schedule: Q01DX005 (ip), vehicle: Klucel (hydroxypropylcellulose) (HPC)

Measured: T/C

O=C1C(=C2C=CN(CCCN3CCCC3)C=C2)C(=O)c2ccccc21
inactive: [1] 90 % of control | [2] 96 % of control | [3] 95 % of control

COC(=O)/C1=C/N(C=O)CCCC2OC12C(=O)OC (stereo not given)
inactive: [4] 100 % of control | [5] 100 % of control

NC(N)=NCC[C@H](N)C(=O)O
inactive: dose: 50.0 mg/kg/injection, schedule: Q01DX005 (ip), vehicle: saline 104 % of control | dose: 100.0 mg/kg/injection, schedule: Q01DX005 (ip), vehicle: saline 104 % of control | dose: 200.0 mg/kg/injection, schedule: Q01DX005 (ip), vehicle: saline 97 % of control

Cc1c(N=Nc2cccc(F)c2)c(-c2ccccc2)nn1C(=S)S
inactive: [6] 117 % of control | dose: 100.0 mg/kg/injection, schedule: Q01DX005 (ip), vehicle: saline with Tween-80 111 % of control | dose: 200.0 mg/kg/injection, schedule: Q01DX005 (ip), vehicle: saline with Tween-80 104 % of control

O=C(O)c1cc(Cl)n[nH]c1=O
inactive: [7] 95 % of control | [8] 92 % of control | [9] 86 % of control

CCCCC/C=C\C/C=C\CCCCCCCC(=O)O
inactive: [1] 93 % of control | [2] 112 % of control | [3] 107 % of control | dose: 400.0 mg/kg/injection, schedule: Q01DX009 (ip), vehicle: Klucel (hydroxypropylcellulose) (HPC) 101 % of control

CCOc1ccc(C(C)c2cc3c(cc2OCC)OCO3)cc1C (stereo not given)
inactive: [10] 94 % of control | [7] 110 % of control and 116 % of control and 97 % of control | [8] 101 % of control and 119 % of control | [9] 114 % of control

O=[N+]([O-])c1ccc(C2OCC3CSCN32)cc1 (stereo not given)
inactive: dose: 100.0 mg/kg/injection, schedule: Q04DX002 (ip), vehicle: saline with Tween-80 107 % of control | dose: 200.0 mg/kg/injection, schedule: Q04DX002 (ip), vehicle: saline with Tween-80 97 % of control | dose: 400.0 mg/kg/injection, schedule: Q04DX002 (ip), vehicle: saline with Tween-80 97 % of control

CCN1CCC[C@]2(C)[C@H]3CC[C@@]4(C)[C@@H](CC[C@]4(C)O)[C@@H]3CC[C@@H]12
inactive: dose: 12.5 mg/kg/injection, schedule: Q01DX005 (ip), vehicle: Klucel (hydroxypropylcellulose) (HPC) 101 % of control | [10] 97 % of control | [7] 93 % of control and 95 % of control

CN1CCNc2c1cc(O)c1c2C(=O)c2ccccc2C1=O
inactive: [4] 101 % of control | [5] 94 % of control | dose: 400.0 mg/kg/injection, schedule: Q01DX001 (ip), vehicle: Klucel (hydroxypropylcellulose) (HPC) 98 % of control

O=c1[nH]c2c([N+](=O)[O-])cc(Cl)cc2nc1/C=C(\O)c1ccc(F)cc1
inactive: dose: 60.0 mg/kg/injection, schedule: Q01DX005 (ip), vehicle: saline with Tween-80 101 % of control | dose: 120.0 mg/kg/injection, schedule: Q01DX005 (ip), vehicle: saline with Tween-80 102 % of control | dose: 240.0 mg/kg/injection, schedule: Q01DX005 (ip), vehicle: saline with Tween-80 106 % of control

COc1cc(/C=C/C2=C(C)C(=O)CC(c3cc(OC)c(OC)c(OC)c3)C2C)cc(OC)c1OC (stereo not given)
inactive: dose: 12.5 mg/kg/injection, schedule: Q04DX003 (ip), vehicle: Klucel (hydroxypropylcellulose) (HPC) 100 % of control | [11] 101 % of control | [12] 97 % of control

O=C(NC(Cc1ccccc1)C(=O)O)OCCc1ccccn1 (stereo not given)
inactive: [13] 104 % of control | dose: 120.0 mg/kg/injection, schedule: Q01DX005 (ip), vehicle: Klucel (hydroxypropylcellulose) (HPC) 92 % of control | dose: 240.0 mg/kg/injection, schedule: Q01DX005 (ip), vehicle: Klucel (hydroxypropylcellulose) (HPC) 102 % of control

CCn1cc(C(=O)O)c(=O)c2cnc(N3CCCC3)nc21
inactive: dose: 50.0 mg/kg/injection, schedule: Q01DX009 (ip), vehicle: saline with Tween-80 90 % of control | dose: 100.0 mg/kg/injection, schedule: Q01DX009 (ip), vehicle: saline with Tween-80 99 % of control | dose: 200.0 mg/kg/injection, schedule: Q01DX009 (ip), vehicle: saline with Tween-80 92 % of control

C=C1C[C@]23C[C@@]1(O)CC[C@H]2[C@@]12C=C[C@@H](O1)C(C(=O)OCC)=C2[C@@H]3O
inactive: dose: 3.75 mg/kg/injection, schedule: Q01DX005 (ip), vehicle: saline 109 % of control | dose: 7.5 mg/kg/injection, schedule: Q01DX005 (ip), vehicle: saline 100 % of control | dose: 15.0 mg/kg/injection, schedule: Q01DX005 (ip), vehicle: Klucel (hydroxypropylcellulose) (HPC) 97 % of control | dose: 15.0 mg/kg/injection, schedule: Q01DX005 (ip), vehicle: saline 107 % of control | [13] 117 % of control

COC(=O)C1=NNC2(c3ccccc3Sc3ccccc32)C1C(=O)OC (stereo not given)
inactive: [7] 90 % of control | [8] 92 % of control | [9] 90 % of control

CCCC(=O)Nc1ncnc2c1ncn2C1OC2COP(=O)(O)OC2C1OC(=O)CCC (stereo not given)
inactive: dose: 3.13 mg/kg/injection, schedule: Q03HX012 (ip), vehicle: saline 114 % of control | dose: 6.25 mg/kg/injection, schedule: Q03HX012 (ip), vehicle: saline 112 % of control | dose: 12.5 mg/kg/injection, schedule: Q03HX012 (ip), vehicle: saline 112 % of control | dose: 25.0 mg/kg/injection, schedule: Q01DX009 (ip), vehicle: saline 96 % of control | dose: 25.0 mg/kg/injection, schedule: Q03HX012 (ip), vehicle: saline 112 % of control | dose: 50.0 mg/kg/injection, schedule: Q01DX009 (ip), vehicle: saline 96 % of control | dose: 50.0 mg/kg/injection, schedule: Q03HX012 (ip), vehicle: saline 116 % of control | dose: 100.0 mg/kg/injection, schedule: Q01DX009 (ip), vehicle: saline 96 % of control | dose: 100.0 mg/kg/injection, schedule: Q03HX012 (ip), vehicle: saline 108 % of control | dose: 200.0 mg/kg/injection, schedule: Q01DX009 (ip), vehicle: saline 104 % of control | dose: 400.0 mg/kg/injection, schedule: Q01DX009 (ip), vehicle: saline 109 % of control

O=C(O)Cc1noc2ccccc12
inactive: [11] 92 % of control | [12] 91 % of control | dose: 100.0 mg/kg/injection, schedule: Q04DX003 (ip), vehicle: Klucel (hydroxypropylcellulose) (HPC) 91 % of control | dose: 200.0 mg/kg/injection, schedule: Q04DX003 (ip), vehicle: Klucel (hydroxypropylcellulose) (HPC) 90 % of control

CC1=CC(O)C(O)C2(C)C1CC1OC(=O)CC3C(C)C(O)C(=O)C2C13CO (stereo not given)
inactive: dose: 12.5 mg/kg/injection, schedule: Q01DX005 (ip), vehicle: saline with Tween-80 97 % of control | dose: 25.0 mg/kg/injection, schedule: Q01DX005 (ip), vehicle: saline with Tween-80 100 % of control | [6] 102 % of control

Cc1ccc(NP2(Nc3ccc(C)cc3)=NP(Nc3ccc(C)cc3)(Nc3ccc(C)cc3)=NP(Nc3ccc(C)cc3)(Nc3ccc(C)cc3)=NP(Nc3ccc(C)cc3)(Nc3ccc(C)cc3)=N2)cc1
inactive: [7] 101 % of control | [8] 99 % of control | [9] 101 % of control

C#CCOC(=O)Nc1nc2ccc(SC#N)cc2s1
inactive: dose: 12.5 mg/kg/injection, schedule: Q01DX009 (ip), vehicle: Klucel (hydroxypropylcellulose) (HPC) 104 % of control | dose: 25.0 mg/kg/injection, schedule: Q01DX009 (ip), vehicle: Klucel (hydroxypropylcellulose) (HPC) 107 % of control | [1] 107 % of control and 90 % of control
